≈ marks a conversion by molar mass, not a printed value.
What was measured:
Assay type in all cases: cell-based
[1] = tested on: Micrococcus luteus DSM1790; test: Kirby-Bauer assay, zone of inhibition (agar well); settings: M. luteus DSM1790; 10 μL DMSO stock (3.2 or 1.6 mg/mL) in well of soft LB agar, 30 °C, 20 h
Procedure: The stock solution of massatide A (1) and B (1a) 3.2 mg/mL were prepared in DMSO. 40 μL overnight culture of Micrococcus luteus DSM1790 was added to 20 mL soft Luria-Bertani agar (1% agar), and then poured into a plate. 10 μL tip was used to make two wells on the plate. 10 μL massatide A (1) or B (1a) solution was added in one of the wells, while in the other well, 10 μL DMSO was added as a negative control. The plates were incubated at 30 °C for 20 h to observe the zone of inhibition. Staphylococcus aureus ATCC25923 was also used to observe the inhibition zone using a similar method. The only difference is incubating at 37 °C. Stock solutions of sistertide A1, kebanetide A1 and A2 were 3.2 mg/mL, 1.6 mg/mL and 1.6 mg/mL, respectively. The method to observe the activity of these compounds individually was the same as that of massatide.

[2] = tested on: Staphylococcus aureus ATCC25923; test: microbe, parasite or virus in culture
Procedure: (§1) For MIC determination, Staphylococcus aureus ATCC25923, Bacillus subtilis 168, Micrococcus luteus DSM1790, Enterococcus faecalis OG1RF, Enterococcus faecium MCC2763, Escherichia coli DH5α and Pseudomonas aeruginosa PAO1 were used as indicator strains. Nisin and vancomycin were used as positive controls. A dilution series of massatide A, massatide B, vancomycin (16, 8, 4, 2, 1, 0.5, 0.25, 0.125, 0.0625, 0.0313 μg/mL) and sistertide A1, kebanetide A1, kebanetide A2, nisin (64, 32, 16, 8, 4, 2, 1, 0.5, 0.25, 0.125 μg/mL) were prepared in 96-well plate from 1–10th column. The indicator strains were added to the compound-containing well. The indicator strain culture with no antibiotics was prepared in the 11th column. The 12th column was filled with 200 μL empty MHB medium. The 96-well plate was incubated at 37 °C for 20 h (30 °C for M. luteus and B. subtilis). The OD600 was detected on MULTISKAN Sky (Thermo Scientific) and MIC values were determined. The MIC values of clinical isolates were determined by Sichuan Primed Shines Bio-tech Co., Ltd. (China) following similar protocol. Levofloxacin was used as a positive control.

[3] = tested on: Enterococcus faecalis OG1RF; test: microbe, parasite or virus in culture; settings: 20 h
Procedure: as §1

[4] = tested on: Micrococcus luteus DSM1790; test: microbe, parasite or virus in culture
Procedure: as §1

[5] = tested on: Bacillus subtilis 168; test: microbe, parasite or virus in culture
Procedure: as §1

[6] = tested on: Enterococcus faecium MCC2763; test: microbe, parasite or virus in culture
Procedure: as §1

[7] = tested on: Pseudomonas aeruginosa PAO1; settings: Pseudomonas aeruginosa PAO1; dilution series in 96-well plate, MHB, 37 °C, 20 h, OD600
Procedure: as §1

[8] = tested on: Escherichia coli DH5α; settings: Escherichia coli DH5α; dilution series in 96-well plate, MHB, 37 °C, 20 h, OD600
Procedure: as §1

| Compound | inhibitory activity (zone of inhibition) [1] | MIC ([2]; ATCC25923, 20 h) | MIC ([3]; OG1RF) | MIC ([4]; DSM1790, 20 h) | MIC ([5]; 168, 20 h) | MIC ([6]; MCC2763, 20 h) | MIC [7] | MIC [8] | MIC ([2]; Staphylococcus aureus ATCC25923, dilution series in 96-well plate, MHB, 37 °C, 20 h, OD600) | MIC ([3]; Enterococcus faecalis OG1RF, dilution series in 96-well plate, MHB, 37 °C, OD600) | MIC ([4]; Micrococcus luteus DSM1790, dilution series in 96-well plate, MHB, 30 °C, 20 h, OD600) | MIC ([5]; Bacillus subtilis 168, dilution series in 96-well plate, MHB, 30 °C, 20 h, OD600) | MIC ([6]; Enterococcus faecium MCC2763, dilution series in 96-well plate, MHB, 37 °C, 20 h, OD600) |
| --- | --- | --- | --- | --- | --- | --- | --- | --- | --- | --- | --- | --- | --- |
| C=C1NC(=O)C(N(C)C)C(C)SC[C@@H](C(=O)N[C@H](C(=O)N[C@@H](C)C(=O)N[C@H](C)C(=O)N[C@@H](C)C(=O)N/C(=C\C)C(=O)N[C@@H](C)C(=O)N[C@H](C)C(=O)N[C@@H](Cc2ccccc2)C(=O)N[C@H](C(=O)N[C@@H](C)C(=O)N[C@H](C)C(=O)N[C@@H](CCC(N)=O)C(=O)N[C@@H](Cc2ccccc2)C(=O)N[C@H](C)C(=O)N[C@@H](C)C(=O)N[C@@H](CCCCN)C(=O)NC2C(=O)N[C@@H](C(C)C)C(=O)N[C@@H](C)C(=O)NCC(=O)NCC(=O)N/C=C\SC2C)C(C)C)[C@@H](C)CC)NC(=O)[C@H](C)NC(=O)[C@@H]2CCCN2C1=O (some centres unmarked) [kebanetide A2 (5), kebanetide A2] | exhibited growth inhibition | >64 µg/mL | 16 µg/mL (≈ 6.72 µM) | 32 µg/mL (≈ 13.4 µM) | 32 to 64 µg/mL | 32 µg/mL (≈ 13.4 µM) | – | – | – | – | – | – | – |
| kebanetide A1 [Kebanetide A1 (4)] | exhibited growth inhibition | – | – | – | – | – | >64 µg/mL | >64 µg/mL | 64 µg/mL | 16 µg/mL | 8 µg/mL | 8 µg/mL | 32 µg/mL |
